The target in this experiment is T1, Human HPK1, catalytic domain (Homo sapiens, UniProt Q92918).
T1 sequence (Q92918 1-346): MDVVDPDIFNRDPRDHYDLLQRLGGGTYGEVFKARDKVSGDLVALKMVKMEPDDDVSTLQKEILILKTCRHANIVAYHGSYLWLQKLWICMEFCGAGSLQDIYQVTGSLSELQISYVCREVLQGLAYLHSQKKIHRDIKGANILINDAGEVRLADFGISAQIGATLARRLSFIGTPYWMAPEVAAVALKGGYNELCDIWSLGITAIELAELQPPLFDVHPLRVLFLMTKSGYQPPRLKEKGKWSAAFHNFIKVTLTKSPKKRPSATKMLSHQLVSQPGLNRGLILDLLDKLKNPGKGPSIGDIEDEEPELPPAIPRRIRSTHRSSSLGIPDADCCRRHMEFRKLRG
Nature of the experiment: HPK1-SLP76 TR-FRET Assay. The experiment is classed as biochemical. Conditions: 75 pM HPK1, ATP 10 uM, SLP76 10 nM, 30 min pre-incubation, 60 min reaction. On the technique in general: TR-FRET usually uses a lanthanide donor and a delayed reading to cut background.

pIC50: −log10 of the molar value.

In turn, `COc1nc(C)ccc1Nc1ncc2c(N)c(F)c(-c3cnc4c(c3C)NCCO4)cc2n1` [Compound 2-66, 6-fluoro-N~2~-(2-methoxy-6-methylpyridin-3-yl)-7-(8-methyl-2,3-dihydro-1H-pyrido[2,3-b][1,4]oxazin-7-yl)quinazoline-2,5-diamine] showed a pIC50 of 9.14.

In the case of `Cc1c(-c2cc3nc(Nc4ccc(C5CCN(C)C5=O)cc4)ncc3cc2F)cnc2c1NCCO2` (single isomer, unassigned) [Compound 1-125, (R or S)-3-(4-{[6-fluoro-7-(8-methyl-2,3-dihydro-1H-pyrido[2,3-b][1,4]oxazin-7-yl)quinazolin-2-yl]amino}phenyl)-1-methylpyrrolidin-2-one], the pIC50 was 10.22.

In the case of `Cc1c(-c2c(F)c(N)c3cnc(Nc4ccc5c(c4)CN(C)CC54CC4)nc3c2Br)cnc2c1NCCO2` [Compound 2-111, (+ or −)-8-bromo-6-fluoro-7-(8-methyl-2,3-dihydro-1H-pyrido[2,3-b][1,4]oxazin-7-yl)-N~2~- (2′-methyl-2′,3′-dihydro-1′H-spiro[cyclopropane-1,4′-isoquinolin]-7′-yl)quinazoline-2,5-diamine], the pIC50 was 10.70.

`COc1cc2c(cc1Nc1ncc3c(N)c(F)c(-c4cnc5c(c4C)NCCO5)cc3n1)CN(C(C)=O)CC2` [Compound 2-12, 1-[7-{[5-amino-6-fluoro-7-(8-methyl-2,3-dihydro-1H-pyrido[2,3-b][1,4]oxazin-7-yl)quinazolin-2-yl]amino}-6-methoxy-3,4-dihydroisoquinolin-2(1H)-yl]ethan-1-one] showed a pIC50 of 6.16.

Molecule `COc1cc(C2CCN(C)C2=O)ccc1Nc1ncc2c(N)c(F)c(-c3cnc4c(c3C)NCCO4)cc2n1` (single isomer, unassigned) [Compound 2-54, (R or S)-3-(4-{[5-amino-6-fluoro-7-(8-methyl-2,3-dihydro-1H-pyrido[2,3-b][1,4]oxazin-7-yl)quinazolin-2-yl]amino}-3-methoxyphenyl)-1-methylpyrrolidin-2-one] showed a pIC50 of 10.11.

Consider `Cc1c(-c2cc3nc(Nc4ccc5c(c4)C(C)(C)OC5=O)ncc3c(N)c2F)cnc2c1NCCO2` [Compound 2-41, 5-{[5-amino-6-fluoro-7-(8-methyl-2,3-dihydro-1H-pyrido[2,3-b][1,4]oxazin-7-yl)quinazolin-2-yl]amino}-3,3-dimethyl-2-benzofuran-1(3H)-one], for which the pIC50 was 10.12.

In the case of `COc1cc2c(cc1Nc1ncc3c(N)c(F)c(-c4cnc5c(c4C)NCCO5)c(Cl)c3n1)CN(C)CC21CC1` (single isomer, unassigned) [Compound 2-163, 8-chloro-6-fluoro-N~2~- (6′-methoxy-2′-methyl-2′,3′-dihydro-1′H-spiro[cyclopropane-1,4′-isoquinolin]-7′-yl)-7-(8-methyl-2,3-dihydro-1H-pyrido[2,3-b][1,4]oxazin-7-yl)quinazoline-2,5-diamine], the pIC50 is 10.23.

For `COc1cc2c(cc1Nc1ncc3ccc(-c4cncc(N5CCNCC5)c4)cc3n1)CNCC2` [Compound 1-50, N-(6-methoxy-1,2,3,4-tetrahydroisoquinolin-7-yl)-7-[5-(piperazin-1-yl)pyridin-3-yl]quinazolin-2-amine], the pIC50 was 8.23.

Take `CCC1COC(=O)N1c1ccc2cnc(Nc3cc4c(cc3OC)CCN(C)C4)nc2c1` (single isomer, unassigned) [Compound 3-14, (S or R)-4-ethyl-3-{2-[(6-methoxy-2-methyl-1,2,3,4-tetrahydroisoquinolin-7-yl)amino]quinazolin-7-yl}-1,3-oxazolidin-2-one]: the pIC50 was 7.61.

On to `COc1cc(CS(C)(=O)=O)ccc1Nc1ncc2c(N)c(F)c(-c3cnc4c(c3C)NCCO4)c(Cl)c2n1` (single isomer, unassigned) [Compound 2-99, (+ or −)-8-chloro-6-fluoro-N~2~-{2-methoxy-4-[(methylsulfonyl)methyl]phenyl}-7-(8-methyl-2,3-dihydro-1H-pyrido[2,3-b][1,4]oxazin-7-yl)quinazoline-2,5-diamine], for which the pIC50 is 7.90.

The molecule `COc1nc(C2(C#N)CC2)ccc1Nc1ncc2c(N)c(F)c(-c3cnc4c(c3C)NCCO4)c(Cl)c2n1` [Compound 2-181, (+ or −)-1-(5-{[5-amino-8-chloro-6-fluoro-7-(8-methyl-2,3-dihydro-1H-pyrido[2,3-b][1,4]oxazin-7-yl)quinazolin-2-ylamino}-6-methoxypyridin-2-yl)cyclopropane-1-carbonitrile] showed a pIC50 of 7.00.

For the molecule `COc1cc2c(cc1Nc1ncc3ccc(-c4ccccc4-c4ccnn4C)cc3n1)CN(C)CC2` [Compound 1-109, N-(6-methoxy-2-methyl-1,2,3,4-tetrahydroisoquinolin-7-yl)-7-[2-(1-methyl-1H-pyrazol-5-yl)phenyl]quinazolin-2-amine], the pIC50 was 9.09.

`CNC(=O)C1(c2ccc(Nc3ncc4cc(F)c(-c5cnc6c(c5C)NCCO6)cc4n3)cc2)CCC1` [Compound 1-121, 1-(4-{[6-fluoro-7-(8-methyl-2,3-dihydro-1H-pyrido[2,3-b][1,4]oxazin-7-yl)quinazolin-2-yl]amino}phenyl)-N-methylcyclobutane-1-carboxamide] had a pIC50 of 9.59.

On to `Cc1c(-c2cc3nc(Nc4ccc(CS(C)(=O)=O)cc4)ncc3c(N)c2F)cnc2c1NCC(C)(C)O2` [Compound 2-165, 6-fluoro-N~2~-{4-[(methylsulfonyl)methyl]phenyl}-7-(3,3,8-trimethyl-2,3-dihydro-1H-pyrido[2,3-b][1,4]oxazin-7-yl)quinazoline-2,5-diamine], for which the pIC50 is 9.99.

Turning to `Cc1c(-c2cc3nc(Nc4cccc(S(=O)(=O)NC(C)(C)C)c4)ncc3c(N)c2F)cnc2c1NCCO2` [Compound 2-33, 3-{[5-amino-6-fluoro-7-(8-methyl-2,3-dihydro-1H-pyrido[2,3-b][1,4]oxazin-7-yl)quinazolin-2-yl]amino}-N-tert-butylbenzene-1-sulfonamide], the pIC50 was 9.73.

Molecule `CCc1ccc(Nc2ncc3c(N)c(F)c(-c4cnc5c(c4C)NCCO5)cc3n2)cn1` [Compound 2-173, N~2~-(6-ethylpyridin-3-yl)-6-fluoro-7-(8-methyl-2,3-dihydro-1H-pyrido[2,3-b][1,4]oxazin-7-yl)quinazoline-2,5-diamine] had a pIC50 of 9.89.

Consider `Cc1ccc(F)cc1-c1cc2nc(Nc3ccc(CS(C)(=O)=O)cc3)ncc2c(N)c1F` [Compound 2-172, 6-fluoro-7-(5-fluoro-2-methylphenyl)-N~2~-{4-[(methylsulfonyl)methyl]phenyl}quinazoline-2,5-diamine], for which the pIC50 is 7.61.

Turning to `CNC(=O)C1(c2ccc(Nc3ncc4c(N)c(F)c(-c5cnc6c(c5C)NCCO6)cc4n3)cc2)CCCCC1` [Compound 2-80, 1-(4-((5-amino-6-fluoro-7-(8-methyl-2,3-dihydro-1H-pyrido[2,3-b][1,4]oxazin-7-yl)quinazolin-2-yl)amino)phenyl)-N-methylcyclohexane-1-carboxamide], the pIC50 was 10.14.

Consider `COc1cc2c(cc1Nc1ncc3ccc(Nc4cccc(S(C)(=O)=O)c4)cc3n1)CN(C)CC2` [Compound 3-33, N~2~-(6-methoxy-2-methyl-1,2,3,4-tetrahydroisoquinolin-7-yl)-N~7~-[3-(methylsulfon-yl)phenyl]quinazoline-2,7-diamine], for which the pIC50 is 7.74.

The term pIC50 denotes the negative decadic logarithm of the IC50, by convention in mol/L. A low value points to a large IC50.

(Values after patent US20230399341A1, “7-PHENYL SUBSTITUTED 2-AMINOQUINAZOLINE INHIBITORS OF HPK1” (MERCK SHARP & DOHME LLC, priority 2020, published 2023).)
